In article PMC6892255, “Identification of a potent small-molecule inhibitor of bacterial DNA repair that potentiates quinolone antibiotic activity in methicillin-resistant Staphylococcus aureus^” (Bioorganic & Medicinal Chemistry, 2019):

What was measured:
[1] = test system: methicillin-resistant S. aureus (MRSA, USA300 JE2); experiment: MIC / growth inhibition assay (end-point OD600), single agent; type: cell-based, Staphylococcus aureus; details: for EC50: Staphylococcus aureus; for fold less potent against JE2 compared to SH1000: ratio of single-agent EC50 values
Excerpt: (§1) Minimum inhibitory concentration (MIC) assays were used to evaluate the antimicrobial activity of compounds against Gram-negative (E. coli) and Gram-positive (S. aureus) bacteria. […] Gram-positive bacteria are more susceptible to small-molecule penetration, and compounds were therefore assessed for growth inhibition against the S. aureus SH1000 strain.
Methicillin-resistant S. aureus (MRSA) is a multi-drug resistant bacterium responsible for a large number of nosocomial infections.[34] The emergence of community associated (CA)-MRSA capable of infection of healthy individuals highlights its significance and clinical relevance.[35]
(§2) 2.1. Biological and biochemical methods
(§3) Bacterial strains and culture conditions
(§4) Strains utilized in the present study are detailed in Table S1. All strains used were cultivated on Mueller Hinton Agar (MHA) and grown to stationary-phase in Mueller Hinton Broth (MHB) at 37 °C for 16 h, with shaking at 180 r.p.m.
(§5) Minimum inhibitory concentration (MIC) assays
(§6) MIC assays were performed in 96 well plates and MICs were determined in accordance with the broth microdilution protocol.4 Strains grown to stationary-phase in MHB were adjusted to 5 x 10^5 colony-forming units (CFU)/mL in fresh MHB (100 µL/well) supplemented with DMSO to ensure a constant concentration of 0.5% (v/v) DMSO across all experiments. Where […]
(§7) or H2O2 (200 μM). Test compounds were prepared as two-fold serial dilutions. Cells were […]
(§8) as the lowest concentration with no visible bacterial growth, and the optical density at 600 nm (OD600) was recorded. OD600 measurements were background corrected against no-inocula control and normalized to DMSO control for dose-response analysis. The EC50 value mean and SEM were calculated from individual EC50 values from three biological replicates. […]

[2] = test system: methicillin-resistant S. aureus (MRSA, USA300 JE2); experiment: Ciprofloxacin (CFX) potentiation in MRSA growth inhibition assay; type: cell-based, Staphylococcus aureus; details: for EC50: read-out: EC50 S. aureus (USA300 JE2) Compound + CFX (9.4 μM), in presence of half-MIC CFX (9.4 μM); for fold increase in potency of para- over meta-substituted analogue, potentiation by CFX: JE2 + CFX, 4 vs 1, 10 vs 7, 14 vs 13
Description: as §2, §3, §4, §5, §6, §7, §8

MRSA (USA300 JE2) [3] = experiment: Growth inhibition in the presence of H2O2; type: cell-based, Staphylococcus aureus; details: read-out: EC50 Compound + H2O2 (200 µM); MRSA USA300 JE2, H2O2 200 µM
Description: (§9) The analogue panel was further tested for potentiation of alternative DNA-damaging agents Mitomycin-C (MMC) and hydrogen peroxide (Table S2), which function via alkylation and oxidization DNA bases, respectively.
as §2, §3, §4, §5, §6, §7, §8

MRSA (USA300 JE2) [4] = experiment: Growth inhibition in the presence of mitomycin-C; type: cell-based, Staphylococcus aureus; details: read-out: EC50 Compound + MMC (0.40 µM); MRSA USA300 JE2, mitomycin-C 0.40 µM
Description: as §9, §2, §3, §4, §5, §6, §7, §8

E. coli K-12 BW25113 = experiment: MIC / growth inhibition assay (end-point OD600), single agent; type: cell-based, Escherichia coli; details: for EC50: Escherichia coli, BW25113, end-point OD600 after 18 h, read-out: EC50 E. coli (K12 BW25113) Compound only
Excerpt: as §1, §2, §3, §4, §5, §6, §7, §8

S. aureus SH1000 = experiment: as above; type: cell-based; details: Staphylococcus aureus, SH1000, 18 h, end-point OD600 after 18 h, read-out: EC50 S. aureus (SH1000) Compound only
Excerpt: as §1, §2, §3, §4, §5, §6, §7, §8

E. coli topoisomerase IV = target: T1, E. coli topoisomerase IV (Escherichia coli, UniProt P0AFI2+P20083); experiment: Topoisomerase IV supercoiling relaxation assay (pQE80L); type: biochemical; details: at 12.5 µM (compounds)
T1 construct: purchased Inspiralis
Description: 2.1. Biological and biochemical methods […]
E. coli DNA gyrase supercoiling assay (Inspiralis) was performed according to the manufacturer’s instructions, ensuring a constant concentration of 1% (v/v) DMSO. Samples were separated on a 1% (w/v) agarose gel prepared with Tris/Borate/EDTA (TBE) buffer (1 M Tris-borate, 20 mM EDTA, pH 8.0). Electrophoresis was performed at 100 V until the bromophenol blue dye had run >6 cm to ensure resolution of relaxed and supercoiled DNA.
The gel was stained with SYBR Safe DNA gel stain (Invitrogen, 1:10,000 dilution in TBE) for 30 min, and visualized on a Syngene Gel Doc system. Band intensity was quantified using ImageJ software and the fraction of supercoiled plasmid was determined as the ratio of the density of the supercoiled band to the total density. Values were background corrected against the no-gyrase control and normalized to DMSO control for dose-response analysis.
E. coli topoisomerase IV supercoiling relaxation assay (Inspiralis) was performed according to the manufacturer’s instructions, ensuring a constant concentration of 1% (v/v) DMSO.
Supercoiled pQE80L was prepared via plasmid purification and used as the substrate for the reaction. Reactions were analyzed as described for DNA gyrase assays. […]

[5] = 18 h, read-out: EC50 S. aureus (USA300 JE2) Compound only, single agent, end-point OD600 after 18 h

T1 sequence (P0AFI2 whole entry): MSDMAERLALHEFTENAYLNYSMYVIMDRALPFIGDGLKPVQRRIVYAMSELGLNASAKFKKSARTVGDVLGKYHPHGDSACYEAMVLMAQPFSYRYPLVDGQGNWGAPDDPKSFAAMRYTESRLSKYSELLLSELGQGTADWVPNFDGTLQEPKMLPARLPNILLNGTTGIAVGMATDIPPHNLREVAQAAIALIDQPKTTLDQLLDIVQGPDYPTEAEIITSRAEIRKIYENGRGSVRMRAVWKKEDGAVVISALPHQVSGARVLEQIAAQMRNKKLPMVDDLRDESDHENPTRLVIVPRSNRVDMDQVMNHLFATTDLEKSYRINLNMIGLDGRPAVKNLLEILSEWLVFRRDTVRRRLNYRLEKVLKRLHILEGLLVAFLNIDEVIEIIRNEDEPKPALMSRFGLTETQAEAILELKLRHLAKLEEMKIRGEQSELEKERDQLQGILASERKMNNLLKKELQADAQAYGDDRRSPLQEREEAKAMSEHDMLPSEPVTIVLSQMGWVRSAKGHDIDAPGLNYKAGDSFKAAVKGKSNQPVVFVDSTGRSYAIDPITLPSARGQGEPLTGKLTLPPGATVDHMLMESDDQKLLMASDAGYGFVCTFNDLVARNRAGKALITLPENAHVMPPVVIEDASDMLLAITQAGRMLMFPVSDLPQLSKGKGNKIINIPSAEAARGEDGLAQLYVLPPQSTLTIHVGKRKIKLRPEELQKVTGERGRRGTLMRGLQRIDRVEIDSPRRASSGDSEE
T1 sequence (P20083 whole entry): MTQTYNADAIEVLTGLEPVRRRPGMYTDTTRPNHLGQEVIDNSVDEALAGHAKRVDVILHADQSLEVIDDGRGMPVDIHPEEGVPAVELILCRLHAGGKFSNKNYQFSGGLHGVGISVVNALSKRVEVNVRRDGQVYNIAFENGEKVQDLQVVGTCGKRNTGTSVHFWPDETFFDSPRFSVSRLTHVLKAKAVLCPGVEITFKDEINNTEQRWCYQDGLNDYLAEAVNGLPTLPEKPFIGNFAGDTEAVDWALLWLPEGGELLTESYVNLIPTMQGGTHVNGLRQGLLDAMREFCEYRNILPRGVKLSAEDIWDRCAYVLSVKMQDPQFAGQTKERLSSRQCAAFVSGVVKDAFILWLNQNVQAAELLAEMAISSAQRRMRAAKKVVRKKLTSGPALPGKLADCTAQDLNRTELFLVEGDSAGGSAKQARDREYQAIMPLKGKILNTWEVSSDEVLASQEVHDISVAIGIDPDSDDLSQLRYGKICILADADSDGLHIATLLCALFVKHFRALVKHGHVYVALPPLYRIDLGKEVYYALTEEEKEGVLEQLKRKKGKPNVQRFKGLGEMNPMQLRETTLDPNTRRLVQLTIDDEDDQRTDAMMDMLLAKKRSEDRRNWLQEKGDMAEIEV

Compound	EC50 [1, 5]	EC50 [2]	EC50 (MRSA (USA300 JE2) [3])	EC50 (MRSA (USA300 JE2) [4])	fold more potent against E. coli than SH1000 (E. coli K-12 BW25113)	EC50 (E. coli K-12 BW25113)	EC50 (S. aureus SH1000)	fold less potent against JE2 compared to SH1000 [1]	fold increase in potency of para- over meta-substituted analogue, potentiation by CFX [2]	EC50 ([1]; single agent, end-point OD600 after 18 h, read-out: EC50 S. aureus (USA300 JE2) Compound only)	Inhibition of topoisomerase IV (E. coli topoisomerase IV)	Effect of the presence of CFX on potency ([2]; JE2, CFX 9.4 µM)
O=C(O)c1cn(C2CC2)c2cc(N3CCN(C(=S)Nc4cc(C(F)(F)F)cc(C(F)(F)F)c4)CC3)c(F)cc2c1=O [Compound 9]	3500 ± 400 nM	470 ± 70 nM	2600 ± 300 nM	1800 ± 300 nM	~5 fold	390 ± 10 nM	1500 ± 300 nM					
O=C(O)c1cn(C2CC2)c2cc(N3CCN(C(=S)Nc4cc(Cl)cc(Cl)c4)CC3)c(F)cc2c1=O [Compound 12]	3600 ± 400 nM	43 ± 11 nM	2900 ± 800 nM	800 nM		420 ± 20 nM	84 ± 7 nM	> 20 fold				
CCn1cc(C(=O)O)c(=O)c2cnc(N3CCN(C(=S)Nc4ccc(C(F)(F)F)cc4)CC3)nc21 [Compound 4]	4000 ± 300 nM	240 ± 30 nM	4700 ± 900 nM	2900 ± 200 nM		> 100000 nM	5200 ± 1100 nM		~5 fold			
O=C(O)c1cn(C2CC2)c2cc(N3CCN(C(=S)Nc4ccc([N+](=O)[O-])cc4)CC3)c(F)cc2c1=O [Compound 14]	> 12500 nM	49 ± 6 nM				260 ± 40 nM	50 ± 8 nM		~10 fold			
O=C(O)c1cn(C2CC2)c2cc(N3CCN(C(=S)Nc4cccc(C(F)(F)F)c4)CC3)c(F)cc2c1=O [Compound 7]	3700 ± 500 nM	140 nM	5500 ± 600 nM	2800 ± 400 nM		410 nM	190 ± 60 nM	> 20 fold				
O=C(O)c1cn(C2CC2)c2cc(N3CCN(C(=S)Nc4cccc([N+](=O)[O-])c4)CC3)c(F)cc2c1=O [Compound 13]	> 25000 nM	430 ± 90 nM				270 ± 20 nM	110 ± 30 nM					
CCn1cc(C(=O)O)c(=O)c2cnc(N3CCN(C(=O)Nc4ccccc4)CC3)nc21 [Compound 15]		> 12500 nM				> 12500 nM	> 12500 nM			> 12500 nM	not inhibited and not	unaffected
O=C(O)c1cn(C2CC2)c2cc(N3CCC(NC(=S)Nc4ccc(C(F)(F)F)cc4)C3)c(F)cc2c1=O (stereo not drawn) [Compound 17]	53000 ± 13000 nM	3200 ± 300 nM				2800 ± 400 nM	1600 ± 400 nM					
CCn1cc(C(=O)O)c(=O)c2cnc(N3CCN(C(=S)Nc4cc(C(F)(F)F)cc(C(F)(F)F)c4)CC3)nc21 [Compound 3]	2700 ± 600 nM	620 ± 90 nM	2400 ± 200 nM	1500 ± 100 nM		> 100000 nM	3600 ± 400 nM					
O=C(O)c1cn(C2CC2)c2cc(NCCNC(=S)Nc3ccc(C(F)(F)F)cc3)c(F)cc2c1=O [Compound 18]	9700 ± 1000 nM	2500 ± 300 nM				> 100000 nM	7700 ± 1200 nM					
CCn1cc(C(=O)O)c(=O)c2cnc(N3CCN(C(=S)Nc4cc(Cl)cc(Cl)c4)CC3)nc21 [Compound 6]	1800 ± 100 nM	120 ± 40 nM	2500 ± 400 nM	1500 nM		> 100000 nM	2300 ± 300 nM					
